Results from ChEMBL document CHEMBL3045135, “Synthesis, characterization and pharmacological evaluation of (E)-N-(substituted-benzylidene)isonicotinohydrazide derivatives as potent anticonvulsant agents” (Med Chem Res, 2012).
Activity calls are given as the source filed them. The rule behind the calls is not given here.

Legend:
[1] = tested on: Mus musculus; experiment: Anticonvulsant activity in Mus musculus C57B/6 (mouse) assessed as protection against maximal electroshock-induced seizure at 300 mg/kg, ip after 4 hr; format: functional, organism-based; parameters: dose 300 mg/kg
[2] = tested on: Mus musculus; experiment: Anticonvulsant activity in Mus musculus C57B/6 (mouse) assessed as protection against maximal electroshock-induced seizure at 300 mg/kg, ip after 0.5 hr; format: functional, organism-based; parameters: dose 300 mg/kg
[3] = Neurotoxicity in ip dosed Mus musculus C57B/6 (mouse) assessed as minimal motor impairment after 4 hr; format: toxicity, organism-based; settings: in vivo
[4] = tested on: Mus musculus; experiment: Anticonvulsant activity in Mus musculus C57B/6 (mouse) assessed as protection against subcutaneous pentylene tetrazole-induced seizure at 300 mg/kg, ip after 0.5 hr; format: functional, organism-based; parameters: dose 300 mg/kg
[5] = tested on: Mus musculus; experiment: Anticonvulsant activity in Mus musculus C57B/6 (mouse) assessed as protection against subcutaneous pentylene tetrazole-induced seizure at 300 mg/kg, ip after 4 hr; format: functional, organism-based; parameters: dose 300 mg/kg
[6] = tested on: Mus musculus; experiment: Neurotoxicity in Mus musculus C57B/6 (mouse) assessed as minimal motor impairment at 300 mg/kg, ip after 0.5 hr; format: toxicity, organism-based; parameters: dose 300 mg/kg, route intraperitoneal; settings: in vivo
[7] = tested on: Mus musculus; experiment: Anticonvulsant activity in Mus musculus C57B/6 (mouse) assessed as protection against 6 Hz psychomotor seizure at 100 mg/kg, ip after 0.25 to 4 hr by minimal clonic seizure test; format: functional, organism-based; parameters: dose 100 mg/kg
[8] = tested on: Mus musculus; experiment: Neurotoxicity in Mus musculus C57B/6 (mouse) assessed as minimal motor impairment at 300 mg/kg, ip after 4 hr; format: toxicity, organism-based; parameters: dose 300 mg/kg, route intraperitoneal; settings: in vivo
[9] = tested on: Mus musculus; experiment: Anticonvulsant activity in ip dosed Mus musculus C57B/6 (mouse) assessed as protection against maximal electroshock-induced seizure after 0.5 hr; format: functional; settings: C57B/6, ip, read-out: MED
[10] = tested on: Mus musculus; experiment: Anticonvulsant activity in ip dosed Mus musculus C57B/6 (mouse) assessed as protection against subcutaneous pentylene tetrazole-induced seizure after 0.5 hr; format: functional; settings: C57B/6, 0.5 h, read-out: MED
[11] = tested on: Mus musculus; experiment: Anticonvulsant activity in ip dosed Mus musculus C57B/6 (mouse) assessed as protection against maximal electroshock-induced seizure after 4 hr; format: functional; settings: C57B/6, ip, read-out: MED

Compound	Activity [1]	Activity [2]	MTD at 4 h [3]	Activity [4]	Activity [5]	Activity [6]	Activity [7]	Activity [8]	minimal effective dose [9]	minimal effective dose [10]	minimal effective dose [11]
C/C(=N\NC(=O)c1ccncc1)c1ccccc1 [ISONICOTINOYLHYDRAZONE OF ACETOPHENONE]	inactive	inactive	300 mg/kg	inactive	inactive						
O=C(N/N=C(\c1ccccc1)c1ccc(Br)cc1)c1ccncc1	inactive	inactive	100 mg/kg	inactive	inactive	Non-toxic					
O=C(N/N=C/c1ccccc1)c1ccncc1 [N'-BENZYLIDENE ISONICOTINOHYDRAZIDE]	inactive			inactive	inactive	Non-toxic	Active	Non-toxic	300 mg/kg		
CN(C)c1ccc(/C=N/NC(=O)c2ccncc2)cc1 [N'-(4-DIMETHYLAMINOBENZYLIDENE)ISONICOTINOHYDRAZIDE]	inactive	inactive	300 mg/kg	inactive	inactive	Non-toxic					
O=C(NN=C(c1ccccc1)c1ccccc1)c1ccncc1	inactive				inactive	Non-toxic	Active	Non-toxic	300 mg/kg	300 mg/kg	
O=C1NC(=O)C(c2ccccc2)(c2ccccc2)N1 [PHENYTOIN]				inactive	inactive				30 mg/kg		30 mg/kg
CCOc1ccccc1/C=N/NC(=O)c1ccncc1	inactive			inactive	inactive	Non-toxic	Active	Non-toxic	300 mg/kg		
O=C(N/N=C/c1cccc(F)c1)c1ccncc1	inactive			inactive	inactive	Non-toxic	Active	Non-toxic	300 mg/kg		
